Data from patent US5795977A, “Water soluble adenosine kinase inhibitors” (Metabasis Therapeutics, Inc., priority 1996, dated 1998).
pIC50: −log10 of the molar value. Where a name gives a salt, the structure may show the parent alone. Read-outs that look alike come from different tables or passages of the source.

Assays:
mice [1] = test: HPLC analysis of plasma, metabolism in mice; format: in vivo, mouse; conditions: oral, 10 mg/kg
[2] = biological target: partially purified pig heart adenosine kinase or recombinant human adenosine kinase; test: AK inhibition; format: biochemical; conditions: 0.5 μM [U-14C] adenosine, pH 7.0, 37° C., 20 minutes
Procedure: Adenosine kinase activity was measured essentially as described by Yamada et al. Biochim. Biophys. Acta 660, 36-43 (1988) with a few minor modifications. Assay mixtures contained 50 mM TRIS-maleate buffer, pH 7.0, 0.1% BSA, 1 mM ATP 1 mM MgCl2, 0.5 μM [U-^14 C] adenosine (400-600 mCi/mmol) and varying duplicate concentrations of inhibitor. […] The amount of ^14 C-AMP was quantified by scintillation counting.

Female SA rats = test: Liver toxicity assay; format: in vivo; conditions: rat, i.v. infusion, total dose 75 μmole/kg, serum
Procedure: Female SA rats (150-200 g) are anesthetized with halothane and cannulated via the internal jugular vein. The animals are allowed to recover for 3 days. At this time, 37.5 μmole/kg of an AK inhibitor is dissolved in 50% PEG400 and infused through the jugular catheter over 20 minutes. Twelve hours later, an additional 37.5 μmole/kg is infused over 20 minutes (total dose =75 μmole/kg). […] Liver enzymes (serum glutamic-oxaloacetic transaminase (SGOT), serum glutamic-pyruvic transaminase (SGPT), alkaline phosphatase) and total bilirubin in the serum samples are determined by a commercial laboratory.

Rats (carrageenan paw) = test: Anti-inflammatory activity, carrageenan paw swelling; format: in vivo; conditions: rat, 10 mg/kg, swelling after 3 hours; for Carrageenan Paw (% inhibition) po: oral gavage
Procedure: Carrageenan (Type λ) was suspended in sterile PBS at 1% (w/v), autoclaved for 30 minutes, and stored at room temperature. Rats were pretreated with vehicle or AK inhibitor (10 mg/kg) by oral gavage or i.p. administration and the volume of the left hind paw was measured using a water displacement plethysmometer (Stoelting Co., Wood Dale, Ill.). One hour after oral treatment or 30 minutes after i.p. treatment, the rats were briefly anesthetized, and 0.1 ml of the carrageenan solution was injected subcutaneously into the planar surface of the left hind paw. The ensuing paw swelling was measured by plethysmometry after 3 hours. The paw volume in millileters was […]. Data are presented in Table 2 as the percent inhibition of paw swelling in AK inhibitor treated animals, compared to vehicle treated control animals.

[3] = system: isolated guinea pig hearts; conditions: in the absence of ADA inhibition; cited from earlier work
[4] = system: male SA rats (maximal electroshock seizures); test: Anticonvulsant activity, maximal electroshock seizures (MES); format: in vivo; conditions: rat, po, fasted; >> = no activity at the stated dose
Procedure: The anticonvulsant activity of the tested compounds was evaluated in male SA rats (100-150g, Simonsen) using the maximal electroshock (MES) model described in Swinyard et al., Antiepileptic Drugs, 3d Ed. at 85-102 (Levy, et al., eds.), NY: Raven Press (1989). The rats were maintained on a 12/12 light/dark cycle in temperature controlled facilities with free access to food and water. For p.o. administration, the animals are fasted overnight, prior to the experiment. One to two hours prior to seizure testing, the animals were injected interperitoneally (ip) or orally (per os, po) with one of various doses of test compound dissolved in DMSO or PEG 400.
This endpoint was expressed as the percentage of animals in which the response was inhibited.

mice [5] = conditions: cited from earlier work
ischemic cerebral injury = conditions: in vivo; cited from earlier work
isolated rat hearts = conditions: alone, cited from earlier work
rat cardiomyocytes = conditions: inhibition of adenosine deaminase alone; cited from earlier work

Row | pIC50 [2] | Compound | SGPT (Female SA rats) [IU/L] | Carrageenan Paw (% inhibition) ip (Rats (carrageenan paw)) [%] | Carrageenan Paw (% inhibition) po (Rats (carrageenan paw)) [%] | other results
1 | 5.00 | C[C@H]1O[C@@H](n2cc(I)c3c(NCCc4ccccn4)ncnc32)[C@H](O)[C@@H]1O [Compound 43, 4-N-(2-(2-pyridylethyl)amino)-5-iodo-7-(5-deoxy-1-β-D-ribofuranosyl)pyrrolo[2,3-d]pyrimidine] |  |  |  | metabolism to a potent AK inhibitor, HPLC analysis of plasma (mice [1]): undergo metabolism in mice after oral administratio
2 | 9.46 | C[C@H]1O[C@@H](n2cc(-c3ccccc3)c3c(Nc4ccc(OCC(=O)N5CCNCC5)cc4)ncnc32)[C@H](O)[C@@H]1O [Compound 196, 4-N-[4-(4-piperazinocarbonylmethyloxy)phenyl]amino-5-phenyl-7-(5-deoxy-1-β-D-ribofuranosyl)pyrrolo(2,3-d)pyrimidine] |  | 11.8 | 0.0 | 
3 | 7.10 | C[C@H]1O[C@@H](n2cc(-c3ccccc3)c3c(Nc4ccc(C(=O)O)cc4)ncnc32)[C@H](O)[C@@H]1O [Compound 209, 4-N-(4carboxyphenyl)amino-5-phenyl-7-(5-deoxy-1-β-D-ribofuranosyl)pyrrolo[2,3-d]pyrimidine] |  | 22.0 | 0.0 | 
4 | 9.52 | OC[C@@H]1O[C@@H](n2cc(-c3ccccc3)c3c(Nc4ccc(CCN5CCNCC5)cc4)ncnc32)[C@H](O)[C@@H]1O [Compound 12, 4-N-[4-(1-piperazinoethyl)phenyl]amino-5-phenyl-7-α-L-lyxofuranosylpyrrolo[2,3-d]pyrimidine] | 76 | 58.8 | 51.0 | Alkaline Phosphatase (Female SA rats): 106 IU/L; SGOT (Female SA rats): 211 IU/L; Total Bilirubin (Female SA rats): 0.41 mg/dL
5 | 9.00 | CCN(CC)CCc1ccc(Nc2ncnc3c2c(-c2ccccc2)cn3[C@@H]2O[C@H](C)[C@@H](O)[C@H]2O)cc1 [Compound 6, 4-N-[4-(2-N,N-diethylaminoethyl)phenyl]amino-5-phenyl-7-(5-deoxy-β-D-ribofuranosyl)pyrrolo[2,3-d]pyrimidine] | 110 | 81.5 | 42.6 | Alkaline Phosphatase (Female SA rats): 104 IU/L; SGOT (Female SA rats): 306 IU/L; Total Bilirubin (Female SA rats): 0.43 mg/dL
6 | 7.17 | C[C@H]1O[C@@H](n2cc(-c3ccccc3)c3c(NCc4ccncc4)ncnc32)[C@H](O)[C@@H]1O [Compound 49, 4-N-(4-pyridylmethyl)amino-5-phenyl-7-(5-deoxy-1-β-D-ribofuranosyl)-pyrrolo[2,3-d]pyrimidine] |  |  |  | ED50 [4]: > 40 mg/kg
7 | 8.15 | C[C@H]1O[C@@H](n2cc(-c3cccc(NC(=N)N)c3)c3c(Nc4ccc(F)cc4)ncnc32)[C@H](O)[C@@H]1O [Compound 206, 4-N-(4-fluorophenyl)amino-5-(3-guanidinophenyl)-7-(5-deoxy-1-β-D-ribofuranosyl)pyrrolo[2,3-d]pyrimidine] |  | 10.1 | 23.5 | 

Further lines, the molecule ahead of its results:

Row | Compound | pIC50 [2] | SGPT (Female SA rats) [IU/L] | Carrageenan Paw (% inhibition) ip (Rats (carrageenan paw)) [%] | Carrageenan Paw (% inhibition) po (Rats (carrageenan paw)) [%] | other results
8 | NC[C@H]1O[C@@H](n2nc(Br)c3c(N)ncnc32)[C@H](O)[C@@H]1O [REF.B, 4amino-1-(5-amino-5-deoxy-1-D-ribofuranosyl)-3-bromopyrazolo[3,4d]pyrimidne HCL, reference compound] |  | 41 |  |  | SGOT (Female SA rats): 100 IU/L; Total Bilirubin (Female SA rats): 0.30 mg/dL
9 | C[C@H]1O[C@@H](n2cc(-c3ccccc3)c3c(Nc4ccc(CN(C)C)cc4)ncnc32)[C@H](O)[C@@H]1O [Compound 1, 4-N-(4-(N,N-Dimethylaminomethyl)phenyl)amino-5-phenyl-7-(5-deoxy-β-D-ribofuranosyl)pyrrolo[2,3-d]pyrimidine] |  | 44 | 26.0 |  | Alkaline Phosphatase (Female SA rats): 131 IU/L; SGOT (Female SA rats): 75 IU/L
10 | NC[C@H]1O[C@@H](n2cnc3c(N)ncnc32)[C@H](O)[C@@H]1O [5'-amino-5'-deoxyadenosine] |  |  |  |  | effect on adenosine release [3]: not apparent
11 | CCN(CC)CCNCCc1ccc(Nc2ncnc3c2c(-c2ccccc2)cn3[C@@H]2O[C@H](C)[C@@H](O)[C@H]2O)cc1 [Compound 5, 4-N-[4-(2-(2-N,N-diethylaminoethyleneamino)ethyl)phenyl]amino-5-phenyl-7-(5-deoxy-β-D-ribofuranosyl)pyrrolo[2,3-d]pyrimidine] | 9.00 |  | 0.0 | 4.1 | ED50 [4]: > 10 mg/kg
12 | Nc1ncnc2c1c(I)cn2[C@@H]1O[C@H](CO)[C@@H](O)[C@H]1O [5-iodotubercidin] |  |  |  |  | flaccidity (skeletal muscle relaxation) (mice [5]): pronounced general flaccidity; protection against ischemic cerebral injury (ischemic cerebral injury): does not protect against ischemic cerebral injury; perfusate adenosine concentration (isolated rat hearts; hypoxic, anoxic or ischemic conditions): no increase in perfusate adenosine concentration; perfusate adenosine concentration (isolated rat hearts; normoxic conditions): no increase in perfusate adenosine concentration
13 | C[C@H]1O[C@@H](n2cc(I)c3c(N)ncnc32)[C@H](O)[C@@H]1O [REF.A, reference compound] |  | 76 |  |  | flaccidity (skeletal muscle relaxation) (mice [5]): pronounced general flaccidity; Total Bilirubin (Female SA rats): 0.76 mg/dL
14 | CC(=O)Nc1ccc(Nc2ncnc3c2c(I)cn3[C@@H]2O[C@H](C)[C@H]3OC(C)(C)O[C@H]32)cc1 [Compound 29, 4-N-[4-(N-acetylamino)phenyl]amino-5-iodo-7-(1-β-D-5-deoxy-2,3-O-isopropylideneribose)pyrrolo[2,3-d]pyrimidine] | 9.30 |  | 26.1 | 14.9 | 
15 | C[C@H]1O[C@@H](n2cc(-c3ccccc3)c3c(Nc4ccc(CCS(=O)(=O)O)cc4)ncnc32)[C@H](O)[C@@H]1O [Compound 265, 4-N[4-(2-Sulfonyloxyethyl)phenylamino]-5-phenyl-7-(5-deoxy-1-β-D-ribofuranosyl)pyrrolo[2,3-d]pyrimidine] | 8.70 |  | 10.0 | 6.2 | 
16 | OC[C@H]1O[C@@H](n2cnc3c2N=CNC[C@H]3O)C[C@@H]1O [2'-deoxycoformycin] |  |  |  |  | adenosine release (rat cardiomyocytes): no effect on adenosine release
